Assay [1] has as its target Gppcp-bound recombinant K-Ras4B G12C mutant protein (amino acids 1-169, C51S/C80L/C118S) (Homo sapiens, UniProt P01116, C118S/C51S/C80L/G12C). The experiment in a line: KRASG12C binding assay (LC-MS, compound binding rate). Particulars: test compound final concentration 0.5 μM, 25° C., 1 hour. Summed up: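 Gppcp-bound K-Ras4B G12C (1-169; C51S/C80L/C118S), 50 nM in TBS with 0.1 mM TCEP, 0.25 mM MgCl2, 50 μM Gppcp, exposed to compound at 0.5 μM final for 1 h at 25 °C. Quenched with formic acid and analysed by intact-protein ESI LC-MS. Binding rate is the mono-adduct signal over total KRAS signal; graded A (≥80%) to E (<20%).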

The target in assay [2] is T1, interaction between recombinant K-Ras4B G12C mutant protein and cRAF RAS-binding domain (cRAF-RBD) (Homo sapiens, UniProt P01116, G12C).
T1 construct: made in house; host or cells: E. coli
The experiment in a line: Inhibitory activity on interaction between KRAS G12C and cRAF (Alpha technology). It is filed as biochemical. Conditions: GMPPNP-bound KRAS G12C incubated with compound at 25° C. for 1 hour, then cRAF-RBD; Alpha signal. A digest of the protocol: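 GMPPNP-loaded His-tagged KRAS G12C (aa 1-169, E. coli) preincubated with compound 1 h at 25° C in Tris pH 7.5, 100 mM NaCl, 1 mM MgCl2, TCEP, 0.1% Tween 20; cRAF-RBD (aa 50-132) added, 1.5 h RT, Alpha signal read. DMSO = 0%, GDP-bound KRAS = 100% inhibition; IC50 from dose titration fit.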

The next assay deals with MIA PaCa-2 cells. The experiment in a line: Growth inhibition activity on KRAS-G12C mutant cell line (MIA PaCa-2), CellTiter-Glo 3D. It is filed as cell-based, human. Conditions: MIA PaCa-2, 3-day culture with compound. Summed up: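 Cells in RPMI1640 with 10% FBS were seeded in U-bottom plates and cultured 1 day at 37 °C, 5% CO2, then exposed to compound (0.2% DMSO final) for 3 more days. Viability read by CellTiter-Glo 3D luminescence; IC50 from growth inhibition relative to untreated wells.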
In general terms: ATP-based viability assays read luminescence as a measure of living cells.

As usually defined, the IC50 is the concentration that gives 50% inhibition.

For `COc1c(-c2cc(F)cn3c(C(=O)c4cc(F)c(NC(=O)/C=C/CNC5(C)CC5)c(F)c4)cnc23)c(C(F)(F)F)cc2c1nc(C)n2C` (single isomer, unassigned) [Example 112-2, (E)-N-(2,6-difluoro-4-(6-fluoro-8-(4-methoxy-1,2-dimethyl-6-(trifluoromethyl)-1H-benzo[d]imidazol-5-yl)imidazo[1,2-a]pyridine-3-carbonyl)phenyl)-4-((1-methylcyclopropyl)amino)but-2-enamide], in assay [1], the binding rate result is “A (A binding rate of 80% or more is rated “A”)”. Moreover, the values for the IC50 (in assay [2]; in the assay with MIA PaCa-2 cells) were 362 nM and 532 nM, respectively.

Take `COc1cc2c(cc1-c1cccn3c(C(=O)c4cc(F)c(NC(=O)/C=C/CN[C@H]5CC[C@H](OC)CC5)c(F)c4)ccc13)ncn2C` [Example 1, (E)-N-(2,6-difluoro-4-(8-(6-methoxy-1-methyl-1H-benzo[d]imidazol-5-yl)indolizine-3-carbonyl)phenyl)-4-(((1r,4r)-4-methoxycyclohexyl)amino)but-2-enamide]: the binding rate entry in assay [1] is on record as “A (A binding rate of 80% or more is rated “A”)”. The IC50 in assay [2] stood at 58 nM; in the assay with MIA PaCa-2 cells (Homo sapiens, MIA PaCa-2, 72 h), 91 nM.

For the compound `CO[C@H]1CC[C@H](NC/C=C/C(=O)Nc2c(F)cc(C(=O)c3ccc4c(-c5cc6nc(C)n(C)c6cc5C(F)(F)F)cccn34)cc2F)CC1` [Example 2, (E)-N-(4-(8-(1,2-dimethyl-6-(trifluoromethyl)-1H-benzo[d]imidazol-5-yl)indolizine-3-carbonyl)-2,6-difluorophenyl)-4-(((1r,4r)-4-methoxycyclohexyl)amino)but-2-enamide], the binding rate entry in assay [1] is on record as “A (A binding rate of 80% or more is rated “A”)”. In addition, the IC50 in assay [2] worked out at 60 nM; in the assay with MIA PaCa-2 cells (Homo sapiens, MIA PaCa-2, 72 h), 57 nM.

As for `CCc1nc2cc(-c3cccn4c(C(=O)c5cc(F)c(NC(=O)/C=C/CN[C@H]6CC[C@H](OC)CC6)c(F)c5)ccc34)c(C(F)(F)F)cc2n1C` [Example 3, (E)-N-(4-(8-(2-ethyl-1-methyl-6-(trifluoromethyl)-1H-benzo[d]imidazol-5-yl)indolizine-3-carbonyl)-2,6-difluorophenyl)-4-(((1r,4r)-4-methoxycyclohexyl)amino)but-2-enamide], in assay [1], the binding rate result is “A (A binding rate of 80% or more is rated “A”)”. The IC50 was determined as 72 nM in assay [2] and 52 nM in the assay with MIA PaCa-2 cells (Homo sapiens, MIA PaCa-2, 72 h).

For the compound `COc1cc2c(cc1-c1cccn3c(C(=O)c4cc(F)c(NC(=O)/C=C/CN[C@H]5CC[C@H](OC)CC5)c(F)c4)ccc13)nc(C)n2C` [Example 4, (E)-N-(2,6-difluoro-4-(8-(6-methoxy-1,2-dimethyl-1H-benzo[d]imidazol-5-yl)indolizine-3-carbonyl)phenyl)-4-(((1r,4r)-4-methoxycyclohexyl)amino)but-2-enamide], the binding rate entry in assay [1] is on record as “A (A binding rate of 80% or more is rated “A”)”. In addition, the IC50 in assay [2] came to 74 nM; in the assay with MIA PaCa-2 cells (Homo sapiens, MIA PaCa-2, 72 h), 42 nM.

For `COc1cc2c(cc1-c1cccn3c(C(=O)c4cc(F)c(NC(=O)/C=C/CNC(C)(C)C)c(F)c4)ccc13)nc(C)n2C` [Example 5, (E)-4-(tert-butylamino)-N-(2,6-difluoro-4-(8-(6-methoxy-1,2-dimethyl-1H-benzo[d]imidazol-5-yl)indolizine-3-carbonyl)phenyl)but-2-enamide], the binding rate result in assay [1] is listed as “A (A binding rate of 80% or more is rated “A”)”. The IC50 in assay [2] came out at 75 nM; in the assay on MIA PaCa-2 cells (Homo sapiens, MIA PaCa-2, 72 h), 45 nM.

Turning to `CO[C@H]1CC[C@H](NC/C=C/C(=O)Nc2c(F)cc(C(=O)c3cnc4c(-c5cc6nc7n(c6cc5C(F)(F)F)CCC7)cccn34)cc2F)CC1` [Example 6, (E)-N-(2,6-difluoro-4-(8-(7-(trifluoromethyl)-2,3-dihydro-1H-benzo[d]pyrrolo[1,2-a]imidazol-6-yl)imidazo[1,2-a]pyridine-3-carbonyl)phenyl)-4-(((1r,4r)-4-methoxycyclohexyl)amino)but-2-enamide], the binding rate entry in assay [1] is “B (a binding rate of 60% or more and less than 80% is rated “B”)”. For the same compound, the IC50 in assay [2] was determined as 70 nM; with MIA PaCa-2 cells (Homo sapiens, MIA PaCa-2, 72 h) it was 94 nM.

For the compound `CC(C)(C)NC/C=C/C(=O)Nc1c(F)cc(C(=O)c2cnc3c(-c4cc5nc6n(c5cc4C(F)(F)F)CCC6)cccn23)cc1F` [Example 7, (E)-4-(tert-butylamino)-N-(2,6-difluoro-4-(8-(7-(trifluoromethyl)-2,3-dihydro-1H-benzo[d]pyrrolo[1,2-a]imidazol-6-yl)imidazo[1,2-a]pyridine-3-carbonyl)phenyl)but-2-enamide], the binding rate entry in assay [1] is “B (a binding rate of 60% or more and less than 80% is rated “B”)”. Besides, the IC50 in assay [2] is 69 nM; in the assay with MIA PaCa-2 cells (Homo sapiens, MIA PaCa-2, 72 h), 160 nM.

As for `COCC(C)(C)NC/C=C/C(=O)Nc1c(F)cc(C(=O)c2ccc3c(-c4cc5ncn(C)c5cc4C(F)(F)F)cccn23)cc1F` [Example 8], in assay [1], the binding rate result was “A (A binding rate of 80% or more is rated “A”)”. Besides, the IC50 in assay [2] was 89 nM; in the assay with MIA PaCa-2 cells (Homo sapiens, MIA PaCa-2, 72 h) it was 130 nM.

Take `Cn1cnc2cc(-c3cccn4c(C(=O)c5cc(F)c(NC(=O)/C=C/CNC6CCOCC6)c(F)c5)ccc34)c(C(F)(F)F)cc21` [Example 9, (E)-N-(2,6-difluoro-4-(8-(1-methyl-6-(trifluoromethyl)-1H-benzo[d]imidazol-5-yl)indolizine-3-carbonyl)phenyl)-4-((tetrahydro-2H-pyran-4-yl)amino)but-2-enamide]: the binding rate entry in assay [1] is given as “A (A binding rate of 80% or more is rated “A”)”. Further, the IC50 turned out to be 27 nM in assay [2] and 82 nM in the assay on MIA PaCa-2 cells (Homo sapiens, MIA PaCa-2, 72 h).

For the compound `CCc1cc2c(ncn2C)c(Cl)c1-c1cccn2c(C(=O)c3cc(F)c(NC(=O)/C=C/CN[C@H]4CC[C@H](OC)CC4)c(F)c3)ccc12` [Example 10, (E)-N-(4-(8-(4-chloro-6-ethyl-1-methyl-1H-benzo[d]imidazol-5-yl)indolizine-3-carbonyl)-2,6-difluorophenyl)-4-(((1r,4r)-4-methoxycyclohexyl)amino)but-2-enamide], in assay [1], the binding rate entry is “A (A binding rate of 80% or more is rated “A”)”. Further, the IC50 was found to be 69 nM in assay [2] and 94 nM in the assay with MIA PaCa-2 cells (Homo sapiens, MIA PaCa-2, 72 h).

Turning to `Cn1cnc2cc(-c3cccn4c(C(=O)c5cc(F)c(NC(=O)/C=C/CNC6(C)CCOCC6)c(F)c5)ccc34)c(C(F)(F)F)cc21` [Example 11, (E)-N-(2,6-difluoro-4-(8-(1-methyl-6-(trifluoromethyl)-1H-benzo[d]imidazol-5-yl)indolizine-3-carbonyl)phenyl)-4-((4-methyltetrahydro-2H-pyran-4-yl)amino)but-2-enamide], the binding rate entry in assay [1] is listed as “A (A binding rate of 80% or more is rated “A”)”. For the same compound, the IC50 was 21 nM in assay [2] and 68 nM in the assay with MIA PaCa-2 cells (Homo sapiens, MIA PaCa-2, 72 h).

In the case of `CCc1cc2c(nc(C)n2C)c(Cl)c1-c1cccn2c(C(=O)c3cc(F)c(NC(=O)/C=C/CNC(C)(C)C)c(F)c3)ccc12` [Example 16, (E)-4-(tert-butylamino)-N-(4-(8-(4-chloro-6-ethyl-1,2-dimethyl-1H-benzo[d]imidazol-5-yl)indolizine-3-carbonyl)-2,6-difluorophenyl)but-2-enamide], the binding rate entry in assay [1] is “A (A binding rate of 80% or more is rated “A”)”. The IC50 was determined as 64 nM in assay [2] and 48 nM in the assay with MIA PaCa-2 cells (Homo sapiens, MIA PaCa-2, 72 h).

Take `CCc1cc2c(nc(C)n2C)c(Cl)c1-c1cccn2c(C(=O)c3cc(F)c(NC(=O)/C=C/CNC4CCOCC4)c(F)c3)ccc12` [Example 17, (E)-N-(4-(8(4-chloro-6-ethyl-1,2-dimethyl-1H-benzo[d]imidazol-5-yl)indolizine-3-carbonyl)-2,6-difluorophenyl)-4-((tetrahydro-2H-pyran-4-yl)amino)but-2-enamide]: in assay [1], the binding rate entry is “A (A binding rate of 80% or more is rated “A”)”. The half-maximal inhibitory concentration (IC50) in assay [2] amounted to 48 nM; in the assay with MIA PaCa-2 cells (Homo sapiens, MIA PaCa-2, 72 h) it was 32 nM.

In the case of `COc1cc(N2CCCC2=O)cc(Cl)c1-c1cccn2c(C(=O)c3cc(F)c(NC(=O)/C=C/CNC(C)(C)C)c(F)c3)ccc12` [Example 21, (E)-4-(tert-butylamino)-N-(4-(8-(2-chloro-6-methoxy-4-(2-oxopyrrolidin-1-yl)phenyl)indolizine-3-carbonyl)-2,6-difluorophenyl)but-2-enamide], the binding rate entry in assay [1] is on record as “A (A binding rate of 80% or more is rated “A”)”. The IC50 was 97 nM in assay [2] and 180 nM with MIA PaCa-2 cells (Homo sapiens, MIA PaCa-2, 72 h).

Regarding `CO[C@H]1CC[C@H](NC/C=C/C(=O)Nc2c(F)cc(C(=O)c3ccc4c(-c5cc6ncn(C)c6cc5O)cccn34)cc2F)CC1` [Example 23, (E)-N-(2,6-difluoro-4-(8-(6-hydroxy-1-methyl-1H-benzo[d]imidazol-5-yl)indolizine-3-carbonyl)phenyl)-4-(((1r,4r)-4-methoxycyclohexyl)amino)but-2-enamide], in assay [1], the binding rate result is “A (A binding rate of 80% or more is rated “A”)”. In addition, the IC50 in assay [2] came out at 23 nM; with MIA PaCa-2 cells (Homo sapiens, MIA PaCa-2, 72 h) it was 520 nM.

These data come from patent publication US20240246968A1, “SMALL MOLECULE INHIBITORS OF KRAS G12C MUTANT” (Merck Sharp & Dohme LLC, priority 2021, published 2024).
